This is an account of results in ChEMBL document CHEMBL4680157, “Design, synthesis and biological evaluation of novel TRβ selective agonists sustained by ADME-toxicity analysis” (Eur J Med Chem, 2020).

The nature of data set [1]: Cytotoxicity against human U2OS cells assessed as cell growth inhibition at 10 uM after 48 hrs relative to control. The class given is cell-based.
Data set [2] is described as follows: Cytotoxicity against human hTERT cells assessed as cell growth inhibition at 10 uM after 24 hrs relative to control. It counts as cell-based, hTERT-BJ.
In data set [3] the target is T1, SIRT7 (Homo sapiens, UniProt Q9NRC8).
T1 sequence (Q9NRC8 whole entry): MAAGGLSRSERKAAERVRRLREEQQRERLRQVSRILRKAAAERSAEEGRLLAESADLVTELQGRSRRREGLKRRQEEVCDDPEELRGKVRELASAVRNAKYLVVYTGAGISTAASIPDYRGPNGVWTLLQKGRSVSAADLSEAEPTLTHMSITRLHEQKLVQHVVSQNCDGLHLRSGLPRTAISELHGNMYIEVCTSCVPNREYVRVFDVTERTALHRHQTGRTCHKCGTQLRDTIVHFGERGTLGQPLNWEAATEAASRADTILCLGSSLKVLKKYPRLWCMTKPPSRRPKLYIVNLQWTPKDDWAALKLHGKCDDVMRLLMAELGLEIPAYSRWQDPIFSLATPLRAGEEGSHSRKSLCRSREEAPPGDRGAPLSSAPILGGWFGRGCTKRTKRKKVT
The data set can be described thus: Inhibition of SIRT7 (unknown origin) at 10 uM relative to control.

In data set [4] the target is CYP2D6 (Homo sapiens, UniProt P10635). Nature of the data set: Inhibition of CYP2D6 (unknown origin) at 10 uM relative to control. It counts as ADME.
The nature of data set [5]: Cytotoxicity against human HEK293 cells assessed as cell growth inhibition at 10 uM after 24 hrs relative to control. The class given is cell-based.
In data set [6] the test system is HepG2. Nature of the data set: Induction of lipolysis in human HepG2 cells assessed as reduction in intracellular lipid accumulation at 1 to 10 uM incubated for 24 hrs by Oil Red O staining based spectrophotometric analysis. The class given is functional, cell-based. The note with it: dose 1-10 µM.
A short description of data set [7]: Toxicity in F344 rat assessed as effect on serum cholesterol level at 75 ug per 100 g body weight, ip administered daily for 3 days (reference value: 67.2 +/- 2.5 mg/dl). It counts as organism-based. Conditions: in vivo, 72 h, dose 75 µg, time 3 day.
Data set [8] can be described thus: Toxicity in F344 rat assessed as effect on serum glucose level at 75 ug per 100 g body weight, ig administered daily for 3 days (reference value: 151 +/- 13.5 mg/dl). The note with it: in vivo, po, 72 h, dose 75 µg, time 3 day.
The nature of data set [9]: Toxicity in F344 rat assessed as effect on serum cholesterol level at 75 ug per 100 g body weight, ig administered daily for 3 days (reference value: 67.2 +/- 2.5 mg/dl). Conditions: in vivo, po, 72 h, dose 75 µg, time 3 day.
Data set [10] is described as follows: Toxicity in F344 rat assessed as effect on serum ALT/GPT level at 100 ug per 100 g body weight, ig administered daily for 3 days (reference value: 46 +/- 4 U/L). Conditions: in vivo, po, 72 h, dose 100 µg, time 3 day.
A short description of data set [11]: Toxicity in F344 rat assessed as increase in heart and body weight ratio at 50 to 100 ug per 100 g body weight, ig administered daily for 3 days. Conditions: in vivo, po, 72 h, dose 50-100 µg, time 3 day.
A short description of data set [12]: Toxicity in F344 rat assessed as effect on serum triglycerides level at 75 ug per 100 g body weight, ip administered daily for 3 days (reference value: 86.8 +/- 10.4 mg/dl). It counts as organism-based. The note with it: in vivo, 72 h, dose 75 µg, time 3 day.
Data set [13] is described as follows: Toxicity in F344 rat assessed as effect on serum AST/GOT level at 75 ug per 100 g of body weight, ig administered daily for 3 days (reference value: 153 +/- 11 U/L). The note with it: in vivo, po, 72 h, dose 75 µg, time 3 day.
Data set [14] can be described thus: Toxicity in F344 rat assessed as effect on serum cholesterol level at 50 ug per 100 g body weight, ig administered daily for 3 days (reference value: 67.2 +/- 2.5 mg/dl). Conditions: in vivo, po, 72 h, dose 50 µg, time 3 day.
Data set [15] can be described thus: Toxicity in F344 rat assessed as effect on serum AST/GOT level at 75 ug per 100 g body weight, ip administered daily for 3 days (reference value: 153 +/- 11 U/L). It counts as organism-based. Conditions: in vivo, 72 h, dose 75 µg, time 3 day.
Data set [16] in a line: Toxicity in F344 rat assessed as effect on serum bilirubin level at 50 ug per 100 g body weight, ig administered daily for 3 days (reference value: 1.4 +/- 0.2 mg/dl). The note with it: in vivo, po, 72 h, dose 50 µg, time 3 day.
The nature of data set [17]: Toxicity in F344 rat assessed as effect on serum AST/GOT level at 100 ug per 100 g body weight, ig administered daily for 3 days (reference value: 153 +/- 11 U/L). Conditions: in vivo, po, 72 h, dose 100 µg, time 3 day.
The nature of data set [18]: Toxicity in F344 rat assessed as effect on serum triglycerides level at 50 ug per 100 g body weight, ig administered daily for 3 days (reference value: 86.8 +/- 10.4 mg/dl). Conditions: in vivo, po, 72 h, dose 50 µg, time 3 day.
A short description of data set [19]: Toxicity in F344 rat assessed as effect on serum bilirubin level at 75 ug per 100 g body weight, ig administered daily for 3 days (reference value: 1.4 +/- 0.2 mg/dl). The note with it: in vivo, po, 72 h, dose 75 µg, time 3 day.
A short description of data set [20]: Toxicity in F344 rat assessed as effect on serum glucose level at 75 ug per 100 g body weight, ip administered daily for 3 days (reference value: 151 +/- 13.5 mg/dl). It counts as organism-based. The note with it: in vivo, 72 h, dose 75 µg, time 3 day.
Data set [21] is described as follows: Toxicity in F344 rat assessed as effect on serum bilirubin level at 75 ug per 100 g body weight, ip administered daily for 3 days (reference value: 1.4 +/- 0.2 mg/dl). The class given is organism-based. The note with it: in vivo, 72 h, dose 75 µg, time 3 day.
Data set [22] can be described thus: Toxicity in F344 rat assessed as increase in heart weight at 50 to 100 ug per 100 g body weight, ig administered daily for 3 days. The note with it: in vivo, po, 72 h, dose 50-100 µg, time 3 day.
For data set [23], the target named is T2, AMP-activated protein kinase, AMPK (Homo sapiens) (UniProt P54646+O43741+P54619+Q9UGJ0+Q9Y478+Q13131+Q9UGI9). The data set can be described thus: Activation of AMPK in human HepG2 cells assessed as ratio of phosphorylated AMPK at 10 uM measured after 24 hrs by Western blot analysis. The class given is cell-based. Conditions: filed as activator. Background: A western blot detects proteins with antibodies after separation by electrophoresis.

Data set [24] is described as follows: Toxicity in F344 rat assessed as effect on serum ALT/GPT level at 50 ug per 100 g body weight, ig administered daily for 3 days (reference value: 46 +/- 4 U/L). Conditions: in vivo, po, 72 h, dose 50 µg, time 3 day.
Data set [25] can be described thus: Toxicity in F344 rat assessed as effect on serum ALT/GPT level at 75 ug per 100 g body weight, ig administered daily for 3 days (reference value: 46 +/- 4 U/L). Conditions: in vivo, po, 72 h, dose 75 µg, time 3 day.
Data set [26] is described as follows: Toxicity in F344 rat assessed as effect on serum triglycerides level at 75 ug per 100 g body weight, ig administered daily for 3 days (reference value: 86.8 +/- 10.4 mg/dl). Conditions: in vivo, po, 72 h, dose 75 µg, time 3 day.
The nature of data set [27]: Toxicity in F344 rat assessed as effect on serum cholesterol level at 100 ug per 100 g body weight, ig administered daily for 3 days (reference value: 67.2 +/- 2.5 mg/dl). Conditions: in vivo, po, 72 h, dose 100 µg, time 3 day.
Data set [28] can be described thus: Toxicity in F344 rat assessed as reduction in liver and body weight ratio at 50 to 100 ug per 100 g body weight, ig administered daily for 3 days. It counts as tissue-based. The note with it: in vivo, po, 72 h, dose 50-100 µg, time 3 day.
Data set [29] deals with T2, AMP-activated protein kinase, AMPK (Homo sapiens). Nature of the data set: Activation of AMPK in human HepG2 cells assessed as ratio of phosphorylated ACC at 10 uM measured after 24 hrs by Western blot analysis. It counts as cell-based. Conditions: filed as activator.

Broadly, the inhibition is the change of the read-out against control, counted positive when it falls.

Active and inactive are the calls of the source. The rule behind the calls is not given here.

Sequence of CYP2D6 (P10635 whole entry): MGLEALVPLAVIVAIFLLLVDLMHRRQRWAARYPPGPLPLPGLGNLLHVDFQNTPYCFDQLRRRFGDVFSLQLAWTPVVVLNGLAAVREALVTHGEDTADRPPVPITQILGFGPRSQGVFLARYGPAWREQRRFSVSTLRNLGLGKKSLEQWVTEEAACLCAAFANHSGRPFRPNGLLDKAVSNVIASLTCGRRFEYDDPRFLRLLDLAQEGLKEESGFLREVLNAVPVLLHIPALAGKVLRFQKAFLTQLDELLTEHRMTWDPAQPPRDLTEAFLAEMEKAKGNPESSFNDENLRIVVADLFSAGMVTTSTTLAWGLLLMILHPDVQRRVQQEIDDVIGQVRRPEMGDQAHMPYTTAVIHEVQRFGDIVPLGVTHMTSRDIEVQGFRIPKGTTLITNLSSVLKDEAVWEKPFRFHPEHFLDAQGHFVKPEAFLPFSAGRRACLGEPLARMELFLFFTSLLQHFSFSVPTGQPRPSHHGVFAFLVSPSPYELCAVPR

Take `Cc1cc(OCC(=O)O)cc(C)c1Cc1ccc(O)cc1`: the inhibition at 48 h, 10 µM in data set [1] is under 50%. Besides, the inhibition at 24 h, 10 µM in data set [2] and in data set [5] was under 50% throughout. The inhibition at 10 µM in data set [3] and in [4] was under 50% each time.
For the compound `Cc1cc(OCC(=O)O)cc(C)c1Cc1ccc(N)c(C(C)C)c1`, the outcome in [6], in data set [23] and in data set [29] was Active. Besides, the Activity was 69.6 mg/dL in data set [7]; 153 mg/dL in data set [8]; 68.6 mg/dL in [9]; 42 U/L in data set [10]; “Non-Toxic” in [11]; 79.6 mg/dL in [12]. In addition, the Activity in [13] was 119 U/L; in [14], 69.5 mg/dL; in data set [15], 123 U/L; in [16] it was 1.3 mg/dL; in data set [17], 102 U/L; in data set [18], 68.3 mg/dL. The Activity was 1.6 mg/dL in data set [19]; 129 mg/dL in [20]; 1.1 mg/dL in data set [21]; “Non-Toxic” in data set [22]; 41 U/L in data set [24]; 43 U/L in data set [25]. For the same compound, the figures for the Activity in data set [26], in data set [27] and in [28] were 74 mg/dL, 70.1 mg/dL and “Non-Toxic”, respectively. In addition, the inhibition at 48 h, 10 µM in data set [1] was under 50%. The inhibition at 24 h, 10 µM in [2] and in data set [5] was under 50% throughout. Besides, the inhibition at 10 µM in data set [3] and in data set [4] was under 50% each time.
`CC(=O)Nc1ccc(Cc2c(C)cc(OCC(=O)O)cc2C)cc1C(C)C`: the outcome in data set [6], in data set [23] and in [29] was Active. Moreover, the Activity in data set [7] was 71.4 mg/dL; in data set [8], 132 mg/dL; in data set [9], 71.4 mg/dL; in [10], 37 U/L; in [11], “Non-Toxic”; in data set [12], 74.2 mg/dL. For the same compound, the Activity in [13] came to 133 U/L; in data set [14], 68 mg/dL; in data set [15], 134 U/L; in [16] it was 1.1 mg/dL; in data set [17] it was 108 U/L; in [18], 70.4 mg/dL. Further, the Activity in data set [19] is 0.9 mg/dL; in data set [20], 132 mg/dL; in [21], 1.5 mg/dL; in [22], “Non-Toxic”; in [24] it was 46 U/L; in data set [25] it was 46 U/L. The Activity in [26] is 67 mg/dL; in data set [27] it was 67.6 mg/dL; in data set [28] it was “Non-Toxic”. The inhibition at 48 h, 10 µM in data set [1] is under 50%. Also, the inhibition at 24 h, 10 µM in data set [2] and in data set [5] was under 50% in each case. For the same compound, the inhibition at 10 µM in data set [3] and in data set [4] was under 50% in each case.
